How the values were obtained:
hTLR8 = target: T1, hTLR8 (Homo sapiens, UniProt Q9NR97); assay: Activation activity test of hTLR8 (HEK-Blue hTLR8 cells, QUANTI-Blue OD650); assay type: cell-based; details: HEK-Blue hTLR8 cells, 24 hours incubation; read-out: TLR8 (EC50)
T1 construct: host or cells: HEK-Blue hTLR8 (HEK293-derived reporter line)
T1 sequence (Q9NR97 27-1041): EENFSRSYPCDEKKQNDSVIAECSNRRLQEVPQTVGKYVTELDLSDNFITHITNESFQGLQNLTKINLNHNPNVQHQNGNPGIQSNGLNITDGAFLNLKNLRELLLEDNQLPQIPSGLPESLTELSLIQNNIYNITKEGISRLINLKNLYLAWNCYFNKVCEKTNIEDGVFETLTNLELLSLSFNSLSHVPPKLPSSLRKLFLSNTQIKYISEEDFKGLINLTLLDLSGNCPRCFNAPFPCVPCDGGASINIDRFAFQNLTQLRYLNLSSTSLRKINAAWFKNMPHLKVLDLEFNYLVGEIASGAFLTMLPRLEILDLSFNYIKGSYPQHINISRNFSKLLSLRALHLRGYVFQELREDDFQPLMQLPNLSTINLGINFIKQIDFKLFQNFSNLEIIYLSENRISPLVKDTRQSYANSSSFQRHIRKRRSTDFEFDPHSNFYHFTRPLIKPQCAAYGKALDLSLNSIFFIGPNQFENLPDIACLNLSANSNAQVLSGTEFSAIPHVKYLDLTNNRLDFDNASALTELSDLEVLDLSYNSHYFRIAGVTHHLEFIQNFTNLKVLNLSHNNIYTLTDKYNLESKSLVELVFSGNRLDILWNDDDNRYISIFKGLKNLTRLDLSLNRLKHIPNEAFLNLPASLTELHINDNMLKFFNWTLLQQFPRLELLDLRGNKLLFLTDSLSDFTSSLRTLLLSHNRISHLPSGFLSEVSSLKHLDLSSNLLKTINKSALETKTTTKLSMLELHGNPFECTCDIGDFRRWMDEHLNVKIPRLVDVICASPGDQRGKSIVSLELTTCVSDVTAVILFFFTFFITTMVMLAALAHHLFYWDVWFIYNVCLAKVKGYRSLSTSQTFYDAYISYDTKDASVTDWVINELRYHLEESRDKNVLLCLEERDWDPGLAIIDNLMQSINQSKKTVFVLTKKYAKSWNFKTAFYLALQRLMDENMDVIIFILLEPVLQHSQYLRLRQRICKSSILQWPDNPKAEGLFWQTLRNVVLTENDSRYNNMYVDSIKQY

hTLR7 [1] = target: T2, hTLR7 (Homo sapiens, UniProt Q9NYK1); assay: Activation activity test of hTLR7 (HEK-Blue hTLR7 cells, QUANTI-Blue OD650); assay type: cell-based; details: 24 hours incubation, read-out: TLR7 (EC50)
T2 construct: host or cells: HEK-Blue hTLR7 (HEK293-derived reporter line)
T2 sequence (Q9NYK1 27-1049): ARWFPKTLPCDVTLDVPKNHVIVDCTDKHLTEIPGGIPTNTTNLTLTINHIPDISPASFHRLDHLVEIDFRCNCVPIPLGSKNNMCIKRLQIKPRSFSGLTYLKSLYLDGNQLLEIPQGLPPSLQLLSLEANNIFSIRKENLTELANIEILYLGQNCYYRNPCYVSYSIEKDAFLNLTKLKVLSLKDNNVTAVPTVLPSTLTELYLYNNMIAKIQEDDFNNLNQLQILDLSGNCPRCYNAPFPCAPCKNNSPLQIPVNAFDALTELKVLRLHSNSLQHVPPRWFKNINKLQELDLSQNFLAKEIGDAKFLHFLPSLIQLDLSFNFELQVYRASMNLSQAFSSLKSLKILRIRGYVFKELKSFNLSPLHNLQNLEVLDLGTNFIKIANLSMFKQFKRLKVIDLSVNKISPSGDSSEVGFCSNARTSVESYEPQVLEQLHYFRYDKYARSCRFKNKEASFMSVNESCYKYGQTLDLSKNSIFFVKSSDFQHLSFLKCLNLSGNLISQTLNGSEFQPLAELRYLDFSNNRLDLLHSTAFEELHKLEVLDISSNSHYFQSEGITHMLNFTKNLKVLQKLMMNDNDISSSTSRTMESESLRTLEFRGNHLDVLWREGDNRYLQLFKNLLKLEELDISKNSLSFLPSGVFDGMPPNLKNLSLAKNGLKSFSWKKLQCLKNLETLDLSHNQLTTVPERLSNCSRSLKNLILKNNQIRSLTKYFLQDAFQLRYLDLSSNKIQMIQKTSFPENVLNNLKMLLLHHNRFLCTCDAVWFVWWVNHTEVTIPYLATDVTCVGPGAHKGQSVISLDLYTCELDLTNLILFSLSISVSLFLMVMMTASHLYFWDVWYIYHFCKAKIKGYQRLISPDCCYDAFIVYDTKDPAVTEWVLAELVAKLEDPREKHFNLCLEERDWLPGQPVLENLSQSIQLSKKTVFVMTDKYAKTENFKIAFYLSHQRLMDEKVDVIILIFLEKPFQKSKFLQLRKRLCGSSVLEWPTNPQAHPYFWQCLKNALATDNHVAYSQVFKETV

hTLR7 [2] = target: T2, hTLR7; assay: EC50 of GS9620 for hTLR7 as reported in WO2016023511A1; details: in words, from the EC50 values reported in WO2016023511A1

Row | EC50 (hTLR8) [µM] | EC50 (hTLR7 [1]) [µM] | Compound | selectivity to TLR7 (hTLR7 [2])
1 | > 100 | 1 to 10 | COCCOc1ncc2[nH]c(=O)n(Cc3ccc(CCN4CCCC4)cc3)c2n1 [Example 68, 9-(4-(2-(pyrrolidin-1-yl)ethyl)benzyl)-2-(2-methoxyethoxy)-7,9-dihydro-8H-purin-8-one] | 
2 | > 100 | 10 to 100 | COCCOc1nc(O)c2[nH]c(=O)n(Cc3ccc(CN4CCCC4)cc3)c2n1 [Example 69, 6-hydroxy-2-(2-methoxyethoxy)-9-(4-(pyrrolidin-1-ylmethyl)benzyl)-7,9-dihydro-8H-purin-8-one] | 
3 | > 100 | 10 to 100 | COCCOc1nc(F)c2[nH]c(=O)n(Cc3ccc(CN4CCCC4)cc3)c2n1 [Example 70, 6-fluoro-2-(2-methoxyethoxy)-9-(4-(pyrrolidin-1-ylmethyl)benzyl)-7,9-dihydro-8H-purin-8-one] | 
4 |  |  | CCCCOc1nc(N)c2c(n1)N(Cc1cccc(CN3CCCC3)c1)CC(=O)N2 [GS9620] | poor

— patent publication US11084818B2 (HEPO PHARMACEUTICAL CO., LTD., priority 2016, dated 2021)
